Reference: publication PMC2533696 (PLoS Pathogens, 2008)
pIC50, pKi: −log10 of the molar value. Where a SMILES comes first, the peptide text is derived from it. Where no end group is shown, it is not given here.

How the values were obtained:
[1] = biological target: Clostridium botulinum neurotoxin serotype A truncated light chain (residues 1 to 424), Balc424 (Clostridium botulinum, UniProt P0DPI0); assay: biochemical; conditions: 37°C, 30 min
BoNT/A = conditions: read-out: Kι; cited from earlier work

Clostridium botulinum neurotoxin serotype A truncated light chain (residues 1 to 424), Balc424, sequence (P0DPI0 1-424 limits assumed): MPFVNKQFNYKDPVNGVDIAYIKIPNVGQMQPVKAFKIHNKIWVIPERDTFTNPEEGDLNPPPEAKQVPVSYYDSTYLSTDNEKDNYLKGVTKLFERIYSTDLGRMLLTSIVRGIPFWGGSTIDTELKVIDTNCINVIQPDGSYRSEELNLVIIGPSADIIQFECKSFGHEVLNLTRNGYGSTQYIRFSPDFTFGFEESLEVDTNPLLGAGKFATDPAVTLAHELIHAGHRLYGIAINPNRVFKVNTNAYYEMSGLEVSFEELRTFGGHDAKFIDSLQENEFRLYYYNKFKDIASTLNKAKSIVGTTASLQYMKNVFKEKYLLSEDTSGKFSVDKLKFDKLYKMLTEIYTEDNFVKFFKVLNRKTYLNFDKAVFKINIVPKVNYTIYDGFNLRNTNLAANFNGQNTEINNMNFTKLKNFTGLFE

| Molecule | pIC50 [1] | pKi (BoNT/A) |
| --- | --- | --- |
| CSCC[C@H](NC(=O)[C@H](CCCCN)NC(=O)[C@@H](NC(=O)[C@H](C)NC(=O)[C@H](CCCNC(=N)N)NC(=O)[C@@H](N)CCC(N)=O)[C@@H](C)O)C(N)=O [QRATKM] (H-QRATKM-NH2) | 3.88 | – |
| Ac-CRATKML | – | 5.72 |
